Laboratory results taken from patent publication US20250194597A1, “METHOD FOR INCREASING FLAVONOID CONTENT IN PLANT THROUGH TREATMENT WITH LOW-MOLECULAR-WEIGHT SULFUR COMPOUND” (REPUBLIC OF KOREA (RURAL DEVELOPMENT ADMINISTRATION), priority 2022, published 2025).

How the values were obtained:
Type in all cases: in vivo
[1] = test system: Chinese cabbage cultivar Whimori; test: Flavonoid content of leaves by HPLC after aglyconization, cultivar Whimori
Description: (§1) 3-(3-Thienyl) acrylic acid (hereinafter referred to as S17) and 3-(2-Thienyl) acrylic acid (hereinafter referred to as 3-(2-S)) dissolved in DMSO at a concentration of 50 μM or 200 μM, respectively, were prepared, and seeds of commercial Chinese cabbage cultivars 5923 and Hwimori were sterilized and then germinated on ½ MS solid medium to prepare 4-day seedlings showing consistent growth.
(§2) The leaves of the cultivars 5923 and Whimori prepared in Example 1-1 were collected and crushed, and then extracted with 50% methanol containing 2N HCl at 95° C. for 2 hours, and flavonoid substances present in the form of glycosides in the plants were aglyconized and analyzed by HPLC. After the substances were separated through HPLC using a C18 column, peaks were detected at 350 nm and 520 nm, and flavonoids and anthocyanin non-glycosides in the extract were identified by comparing the retention time and UV spectrum of flavonol non-glycoside standards such as kaempferol, quercetin, myricetin and isorhamnetin, and anthocyanin non-glycoside standards such as pelargonidin, cyanidin and delphinidin, respectively, and the content of the identified flavonoid and anthocyanin substances was estimated based on the concentration of the standards and the area of the peak. As a control group, the cultivar 5923 or Whimori that was not treated with sulfur compounds was used.

[2] = test system: rice cultivar purple rice; test: Anthocyanin coloration of rice cultivar purple rice; conditions: for anthocyanin coloration in the hypocotyls: cultured 7 days
Description: To confirm whether anthocyanin coloring effects occur when not only dicotyledonous plants but also gramineous plants, which are monocotyledonous plants, are treated with S17 or 3-(2-S), seeds of the rice cultivar purple rice were sown on ½ MS medium containing each of S17 (40 μM) or 3-(2-S) (80 μM) and cultured for 7 days to observe anthocyanin coloration.

[3] = test system: Chinese cabbage cultivar 5923; test: Flavonoid content of leaves by HPLC after aglyconization, cultivar 5923; conditions: for cyanidin accumulation: 200 μM alone (no sucrose); for kaempferol content: treated alone (no sucrose), 50 and 200 μM, vs control
Description: as §1, §2

[4] = test system: Chinese cabbage cultivar Whimori; test: Anthocyanin coloration observed with the naked eye, Chinese cabbage cultivar Whimori seedlings; conditions: 50 μM or 200 μM, cultured 10 days
Description: as §1

[5] = test system: Chinese cabbage cultivar 5923; test: Anthocyanin coloration observed with the naked eye, Chinese cabbage cultivar 5923 seedlings; conditions: cultured 10 days
Description: as §1

Arabidopsis thaliana = test: Anthocyanin coloration of Arabidopsis thaliana seedlings; conditions: cultured 5 days; for anthocyanin coloration: 50 μM or 200 μM + 4% sucrose
Description: To confirm whether anthocyanin coloring effect occurs when Arabidopsis thaliana, which is a cruciferous plant such as Chinese cabbage, is treated with S17 or 3-(2-S), Arabidopsis thaliana was treated with S17 or 3-(2-S) alone, and each was treated with 4% sucrose. Specifically, Arabidopsis thaliana seeds were germinated on ½ MS solid medium supplemented with 1% sucrose, and then day 6 seedlings were placed on ½ MS medium supplemented with each of S17 (50 μM or 200 μM)+4% sucrose, or 3-(2-S) (50 μM or 200 μM)+4% sucrose and cultured for 5 days to observe anthocyanin coloration.

`O=C(O)/C=C/c1cccs1` [3-(2-S), 3-(2-Thienyl) acrylic acid] was tested, and the production of cyanidin ([1]; 200 μM + 4% sucrose) was “produced”, the production of isorhamnetin ([1]; 200 μM + 4% sucrose) was “produced” and the production of quercetin ([1]; 200 μM + 4% sucrose) was “produced”. For the same compound, the kaempferol content ([1]; + 4% sucrose, concentration dependence) was “increased in a concentration-dependent manner”, the “kaempferol content compared to the control group” value ([1]; treated alone (no sucrose)) was “remarkably increased” and the “anthocyanin coloration in the hypocotyls” value ([2]; 80 μM) was “anthocyanin coloration was strong”. The cyanidin accumulation [3] was “cyanidin was accumulated”, the kaempferol content [3] was “increased in a concentration-dependent manner” and the “anthocyanin coloration (naked eye)” value [4] was “red coloration in Chinese cabbage in a concentration-dependent manner”. For the same compound, the “anthocyanin coloration (naked eye)” value ([5]; 200 μM + 4% sucrose) was “Coloration was confirmed” and the anthocyanin coloration (Arabidopsis thaliana) was “anthocyanin coloration occurred”.
For `O=C(O)/C=C/c1ccsc1` [S17, 3-(3-Thienyl) acrylic acid], the “kaempferol content compared to the control group” value ([1]; 50 μM and 200 μM + 4% sucrose) was “remarkably increased”, the production of cyanidin ([1]; 50 μM and 200 μM + 4% sucrose) was “produced” and the production of isorhamnetin ([1]; 50 μM and 200 μM + 4% sucrose) was “produced”. The production of quercetin ([1]; 50 μM and 200 μM + 4% sucrose) was “produced”, the “kaempferol content compared to the control group” value ([1]; treated alone (no sucrose)) was “remarkably increased” and the “anthocyanin coloration in the hypocotyls” value ([2]; 40 μM) was “anthocyanin coloration was strong”. The “coloration-inducing effect (anthocyanin production effect) relative to 3-(2-S)” value ([2]; S17 40 μM vs 3-(2-S) 80 μM) was “comparatively superior”, the “kaempferol content increase compared to the control group” value ([3]; 50 μM + 4% sucrose) was “up to 6.3 times” and the production of isorhamnetin ([3]; 50 μM + 4% sucrose) was “confirmed”. The production of quercetin ([3]; 50 μM + 4% sucrose) was “confirmed”, the “cyanidin content compared to the control group” value ([3]; 200 μM + 4% sucrose) was “remarkably increased” and the cyanidin accumulation [3] was “cyanidin was accumulated”. For the same compound, the anthocyanin production ability ([3]; 200 μM vs 50 μM treated group, + 4% sucrose) was “remarkably enhanced”, the kaempferol content [3] was “increased in a concentration-dependent manner” and the “anthocyanin coloration (naked eye)” value [4] was “red coloration in Chinese cabbage in a concentration-dependent manner”. The “anthocyanin coloration (naked eye)” value ([5]; 50 μM + 4% sucrose) was “coloration appeared on the back of the cotyledons and true leaves”, the “anthocyanin coloration (naked eye)” value ([5]; 200 μM + 4% sucrose) was “slightly increased coloration appeared” and the “anthocyanin coloration (naked eye)” value ([5]; 200 μM alone, no sucrose) was “coloration appeared on the back of the leaves”. For the same compound, the anthocyanin coloration (Arabidopsis thaliana) was “anthocyanin coloration occurred” and the “anthocyanin coloring compared to the 3-(2-S) treated group” value (Arabidopsis thaliana; + 4% sucrose) was “stronger coloring”.
